From patent publication US20260217698A1 (BEYANG THERAPEUTICS CO., LTD., priority 2022, published 2026)
≈ marks a conversion by molar mass, not a printed value.

Columns and labels:
[1] = Solubility test in buffer, LC-MS; assay type: physicochemical; conditions: aqueous buffer, thermodynamic from solid, room temperature, shaking 8 h, pH not given (method: pH 2.0, 6.5, 7.4)
Protocol: Accurately weigh 3 portions of about 2 mg of the compound, and add appropriate volumes of buffers with the pHs of 2.0, 6.5, and 7.4 respectively to obtain a solution with a concentration of 2 mg/mL. After sonication for 10 min, fix them on a shaker and shaking for 8 h at room temperature. After shaking, sonicate for 10 min and centrifuge for 15 min at 13,000 rpm. Pipette 0.1 mL of supernatant into a new tube, shake and rinse it with 5 mL, and discard the liquid. Transfer 0.5 mL of the supernatant again to a new tube, centrifuge it for 15 min at 13,000 rpm, then collect the supernatant (if necessary, dilute with water) and analyze it by LC-MS. The sample concentrations at 3~5 points are subjected to fitting and reticle for quantification.

[2] = biological target: VEGFR2 (Homo sapiens, UniProt P35968); test: Kinase inhibition, Mobility Shift Assay/IMAP, VEGFR2; assay type: biochemical; set-up: purchased Carna 08-191
Procedure, shortened: (§1)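 Substrate conversion (phosphorylated vs non-phosphorylated) read by mobility shift on Caliper EZ Reader II and converted to % inhibition relative to no-enzyme and DMSO controls. IC50 fitted from % inhibition versus log compound concentration.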

[3] = biological target: T1, TIE2 (Homo sapiens, UniProt Q02763); test: Kinase inhibition, Mobility Shift Assay/IMAP, TIE2; assay type: biochemical
T1 construct: purchased BPS 40270
Excerpt: (§2) This assay directly monitored the ability of compounds to inhibit kinase phosphorylation by measuring non-phosphorylated and phosphorylated substrates in kinase reactions by using Mobility Shift Assays/IMAP™ analysis.
(§3) Read the conversion ratio data on CaliperEZ Reader II. Convert conversion rates into inhibition ratio data.
(§4) “Min” indicates the readout of the control well without the addition of enzymes; and “Max” indicates the readout of the control well with the addition of DMSO Fit IC50 values with XL Fit excel add-in version […].
(§5) X indicates the log value of compound concentration, and Y indicates the inhibition ratio (% inhibition).

[4] = system: melanin; test: Binding capacity of compounds to melanin; assay type: in vitro ADME, cuttlefish (Sepia officinalis); conditions: cuttlefish (Sepia officinalis), melanin suspension (1 mg/mL); 1 mg/mL melanin in PBS pH 7.4, 2 μM compound, 2 h at 37° C.; read-out: Fu % (percentage of free drug)
Procedure, shortened: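 Compound (2 μM final) incubated with washed Sepia melanin (1 mg/mL, PBS pH 7.4) 2 h at 37° C with shaking; PBS with 0.1% BSA served as blank. Supernatants quantified by LC-MS/MS; bound fraction Fb derived from melanin versus blank concentration.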

[5] = biological target: T2, VEGFR1 (Homo sapiens, UniProt P17948); test: Kinase inhibition, Mobility Shift Assay/IMAP, VEGFR1; assay type: biochemical
T2 construct: purchased Invitrogen PR6731B
Excerpt: as §2, §3, §4, §5

[6] = biological target: T3, EGFR (Homo sapiens, UniProt P00533); test: Kinase inhibition, Mobility Shift Assay/IMAP, EGFR; assay type: biochemical
T3 construct: purchased Carna 08-115
Procedure, shortened: as §1

[7] = biological target: T4, VEGFR3 (Homo sapiens, UniProt P35916); test: Kinase inhibition, Mobility Shift Assay/IMAP, VEGFR3; assay type: biochemical
T4 construct: purchased Invitrogen PV4129
Excerpt: as §2, §3, §4, §5

Sequence of VEGFR2 (P35968 790-1356 limits assumed): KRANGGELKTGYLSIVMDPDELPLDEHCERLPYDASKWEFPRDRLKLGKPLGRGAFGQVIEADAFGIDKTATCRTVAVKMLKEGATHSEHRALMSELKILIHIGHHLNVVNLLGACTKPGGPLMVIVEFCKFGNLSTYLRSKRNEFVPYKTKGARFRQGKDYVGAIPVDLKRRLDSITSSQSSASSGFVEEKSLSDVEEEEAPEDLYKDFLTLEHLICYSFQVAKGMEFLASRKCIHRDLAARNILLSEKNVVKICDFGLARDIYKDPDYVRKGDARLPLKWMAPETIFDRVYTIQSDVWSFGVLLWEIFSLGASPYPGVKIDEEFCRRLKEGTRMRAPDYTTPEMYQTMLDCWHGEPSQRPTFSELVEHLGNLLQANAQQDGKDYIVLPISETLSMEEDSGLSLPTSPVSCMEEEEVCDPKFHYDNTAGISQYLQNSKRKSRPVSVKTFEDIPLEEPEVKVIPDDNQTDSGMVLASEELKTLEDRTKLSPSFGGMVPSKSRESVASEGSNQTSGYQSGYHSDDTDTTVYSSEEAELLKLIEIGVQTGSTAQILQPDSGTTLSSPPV
T1 sequence (Q02763 23-1124): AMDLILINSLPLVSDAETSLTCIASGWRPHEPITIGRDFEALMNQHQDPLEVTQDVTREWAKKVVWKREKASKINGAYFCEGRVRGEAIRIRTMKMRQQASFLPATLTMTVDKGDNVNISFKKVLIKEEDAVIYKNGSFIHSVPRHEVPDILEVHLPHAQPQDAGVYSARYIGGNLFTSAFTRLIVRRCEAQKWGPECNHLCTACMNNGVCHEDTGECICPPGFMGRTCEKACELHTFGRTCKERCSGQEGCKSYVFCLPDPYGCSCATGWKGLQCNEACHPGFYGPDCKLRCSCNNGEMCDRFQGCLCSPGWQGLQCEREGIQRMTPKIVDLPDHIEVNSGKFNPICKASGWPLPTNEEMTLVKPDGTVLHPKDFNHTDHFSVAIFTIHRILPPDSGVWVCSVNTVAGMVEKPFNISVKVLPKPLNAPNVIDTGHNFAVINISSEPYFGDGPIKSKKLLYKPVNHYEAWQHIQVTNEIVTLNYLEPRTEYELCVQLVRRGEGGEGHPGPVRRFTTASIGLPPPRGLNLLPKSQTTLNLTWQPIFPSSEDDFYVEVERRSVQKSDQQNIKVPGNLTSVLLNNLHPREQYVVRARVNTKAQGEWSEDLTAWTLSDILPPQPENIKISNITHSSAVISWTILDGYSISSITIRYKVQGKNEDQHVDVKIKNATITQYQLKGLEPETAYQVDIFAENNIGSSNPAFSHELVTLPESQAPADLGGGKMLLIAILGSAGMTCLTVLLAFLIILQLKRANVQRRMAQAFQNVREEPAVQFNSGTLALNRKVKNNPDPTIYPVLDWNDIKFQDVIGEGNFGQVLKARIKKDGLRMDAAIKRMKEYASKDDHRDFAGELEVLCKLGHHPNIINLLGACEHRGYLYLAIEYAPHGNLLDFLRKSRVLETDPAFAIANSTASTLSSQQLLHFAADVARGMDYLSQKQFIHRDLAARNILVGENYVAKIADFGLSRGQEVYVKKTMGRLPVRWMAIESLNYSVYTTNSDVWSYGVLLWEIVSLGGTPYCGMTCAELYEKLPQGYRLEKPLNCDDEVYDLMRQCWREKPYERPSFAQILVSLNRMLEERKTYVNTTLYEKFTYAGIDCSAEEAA
T3 sequence (P00533 669-1210 limits assumed): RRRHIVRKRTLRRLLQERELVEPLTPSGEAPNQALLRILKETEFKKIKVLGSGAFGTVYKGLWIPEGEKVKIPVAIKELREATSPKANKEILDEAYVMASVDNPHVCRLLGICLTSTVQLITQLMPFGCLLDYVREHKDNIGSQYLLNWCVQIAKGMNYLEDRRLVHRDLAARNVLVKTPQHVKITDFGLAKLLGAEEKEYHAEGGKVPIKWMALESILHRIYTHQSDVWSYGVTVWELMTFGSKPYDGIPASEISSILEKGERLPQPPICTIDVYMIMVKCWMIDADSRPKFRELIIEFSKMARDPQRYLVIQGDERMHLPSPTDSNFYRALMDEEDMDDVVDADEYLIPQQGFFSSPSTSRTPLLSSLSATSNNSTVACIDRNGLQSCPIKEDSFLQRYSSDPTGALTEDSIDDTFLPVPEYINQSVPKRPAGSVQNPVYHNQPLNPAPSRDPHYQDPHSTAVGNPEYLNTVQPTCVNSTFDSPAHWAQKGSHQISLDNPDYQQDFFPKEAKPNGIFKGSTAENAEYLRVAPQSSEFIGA
T4 sequence (P35916 25-1363): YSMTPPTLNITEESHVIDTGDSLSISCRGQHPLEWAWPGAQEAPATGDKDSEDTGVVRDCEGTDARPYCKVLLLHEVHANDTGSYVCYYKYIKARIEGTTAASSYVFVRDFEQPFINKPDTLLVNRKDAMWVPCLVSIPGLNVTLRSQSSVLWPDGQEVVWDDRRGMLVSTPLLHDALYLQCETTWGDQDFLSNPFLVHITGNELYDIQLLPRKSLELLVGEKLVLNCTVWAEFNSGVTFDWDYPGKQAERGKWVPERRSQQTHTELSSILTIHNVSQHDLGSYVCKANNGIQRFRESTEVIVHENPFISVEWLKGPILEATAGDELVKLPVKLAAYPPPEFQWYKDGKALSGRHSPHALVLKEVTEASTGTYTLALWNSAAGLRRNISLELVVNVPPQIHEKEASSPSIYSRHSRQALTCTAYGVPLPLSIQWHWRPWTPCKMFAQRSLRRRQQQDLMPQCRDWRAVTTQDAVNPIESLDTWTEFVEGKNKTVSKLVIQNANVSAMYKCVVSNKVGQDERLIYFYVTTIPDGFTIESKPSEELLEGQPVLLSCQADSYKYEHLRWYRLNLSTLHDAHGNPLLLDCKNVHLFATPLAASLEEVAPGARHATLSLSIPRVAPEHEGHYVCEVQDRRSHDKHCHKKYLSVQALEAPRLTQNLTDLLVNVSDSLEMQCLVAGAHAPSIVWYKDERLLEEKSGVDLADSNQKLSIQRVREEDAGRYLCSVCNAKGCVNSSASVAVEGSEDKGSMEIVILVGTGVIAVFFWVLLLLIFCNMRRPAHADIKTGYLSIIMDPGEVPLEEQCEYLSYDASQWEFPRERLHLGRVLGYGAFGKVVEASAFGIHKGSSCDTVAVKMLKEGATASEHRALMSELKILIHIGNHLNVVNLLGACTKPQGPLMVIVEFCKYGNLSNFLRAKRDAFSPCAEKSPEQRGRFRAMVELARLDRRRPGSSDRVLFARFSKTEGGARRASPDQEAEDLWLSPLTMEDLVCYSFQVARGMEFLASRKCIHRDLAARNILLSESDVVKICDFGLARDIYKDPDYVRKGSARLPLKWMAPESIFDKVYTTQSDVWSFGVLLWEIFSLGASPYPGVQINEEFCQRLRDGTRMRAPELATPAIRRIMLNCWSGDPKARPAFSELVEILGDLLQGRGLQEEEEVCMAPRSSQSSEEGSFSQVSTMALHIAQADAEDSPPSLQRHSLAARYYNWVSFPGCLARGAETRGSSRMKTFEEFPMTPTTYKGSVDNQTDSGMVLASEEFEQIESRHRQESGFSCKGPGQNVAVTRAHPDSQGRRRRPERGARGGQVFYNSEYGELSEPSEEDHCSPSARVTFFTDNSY
T2 sequence (P17948 27-1338): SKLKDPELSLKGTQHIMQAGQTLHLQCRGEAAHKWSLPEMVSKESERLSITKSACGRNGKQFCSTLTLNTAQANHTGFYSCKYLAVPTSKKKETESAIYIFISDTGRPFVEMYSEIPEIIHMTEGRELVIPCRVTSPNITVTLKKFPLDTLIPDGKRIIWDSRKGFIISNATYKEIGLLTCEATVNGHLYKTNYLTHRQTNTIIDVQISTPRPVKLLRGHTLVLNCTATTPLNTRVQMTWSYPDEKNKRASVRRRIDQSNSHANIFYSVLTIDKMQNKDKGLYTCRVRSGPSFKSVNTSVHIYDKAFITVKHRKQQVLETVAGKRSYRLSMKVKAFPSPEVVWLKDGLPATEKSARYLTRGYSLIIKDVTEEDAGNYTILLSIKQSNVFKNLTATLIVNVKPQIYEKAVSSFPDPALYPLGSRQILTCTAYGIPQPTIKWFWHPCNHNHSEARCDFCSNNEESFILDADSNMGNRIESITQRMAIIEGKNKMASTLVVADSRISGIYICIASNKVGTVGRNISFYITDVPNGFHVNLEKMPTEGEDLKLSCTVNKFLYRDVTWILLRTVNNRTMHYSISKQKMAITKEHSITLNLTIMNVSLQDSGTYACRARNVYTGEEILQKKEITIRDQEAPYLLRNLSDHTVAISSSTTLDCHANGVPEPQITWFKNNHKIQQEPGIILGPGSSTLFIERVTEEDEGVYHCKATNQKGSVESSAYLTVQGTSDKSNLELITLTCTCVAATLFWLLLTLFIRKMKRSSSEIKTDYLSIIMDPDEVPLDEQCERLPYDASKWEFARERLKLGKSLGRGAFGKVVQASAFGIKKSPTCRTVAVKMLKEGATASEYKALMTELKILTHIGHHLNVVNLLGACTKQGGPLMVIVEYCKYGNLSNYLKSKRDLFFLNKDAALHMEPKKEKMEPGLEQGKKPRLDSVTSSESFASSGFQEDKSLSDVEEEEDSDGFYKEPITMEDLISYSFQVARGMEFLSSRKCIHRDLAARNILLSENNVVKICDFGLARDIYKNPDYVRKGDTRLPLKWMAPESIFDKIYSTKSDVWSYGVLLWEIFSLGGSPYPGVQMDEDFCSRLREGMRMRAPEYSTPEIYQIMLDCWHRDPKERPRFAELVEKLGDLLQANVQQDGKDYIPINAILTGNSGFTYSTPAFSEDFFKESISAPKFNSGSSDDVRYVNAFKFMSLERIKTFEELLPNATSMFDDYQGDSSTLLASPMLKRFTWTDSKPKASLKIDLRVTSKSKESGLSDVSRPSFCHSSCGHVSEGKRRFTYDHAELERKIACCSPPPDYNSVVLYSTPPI

Row | solubility at 8 h [1] [µg/mL] | IC50 [2] [µM] | IC50 [3] [µM] | fraction unbound at 2 h, 2 μM [4] | IC50 [5] [µM] | IC50 [6] [µM] | IC50 [7] [µM] | Compound
1 | 608 (≈ 1320 µM) | 0.043 | 0.475 |  |  |  |  | NC(=O)c1c(OCc2ccc3c(c2)OCO3)nsc1NC(=O)NCCCCN1CCCC1 [Compound T007, 3-(benzo[d][1,3]dioxol-5-ylmethoxy)-5-(3-(4-(pyrrolidin-1-yl)butyl)ureido)isothiazole-4-carboxamide]
2 | 478 (≈ 953 µM) |  |  | 0.0421 |  |  |  | NC(=O)c1c(OCc2ccc(OC(F)F)c(F)c2)nsc1NC(=O)NCCCCN1CCCC1 [Compound T027, 3-((4-(difluoromethoxy)-3-fluorobenzyl)oxy)-5-(3-(4-(pyrrolidin-1-yl)butyl)ureido)isothiazole-4-carboxamide]
3 | 815 (≈ 1560 µM) | 0.00353 |  |  | 0.00225 | 24 | 0.0128 | NC(=O)c1c(OCc2ccc(F)c(C(=O)NC3CC3)c2)nsc1NC(=O)NCCCN1CC[C@H](F)C1 [Compound T152, 3-[[3-(cyclopropylcarbamoyl)-4-fluoro-phenyl]methoxy]-5-[3-[(3S)-3-fluoropyrrolidin-1-yl]propylcarbamoylamino]isothiazole-4-carboxamide]
4 | 2060 (≈ 4480 µM) |  |  | 0.0196 |  | 43.5 |  | NC(=O)c1c(OCc2ccc3c(c2)COC3)nsc1NC(=O)NCCCCN1CCCC1 [Compound T072, 3-((1,3-dihydroisobenzofuran-5-yl)methoxy)-5-(3-(4-(pyrrolidin-1-yl)butyl)ureido)isothiazole-4-carboxamide]
5 | 1290 (≈ 2570 µM) |  |  |  |  |  |  | Cn1nc(COc2nsc(NC(=O)NCCCCN3CCCC3)c2C(N)=O)cc1Br [Compound T022, 3-((5-bromo-1-methyl-1H-pyrazol-3-yl)methoxy)-5-(3-(4-(pyrrolidin-1-yl)butyl)ureido)isothiazole-4-carboxamide]
6 | 2310 (≈ 4880 µM) | 0.0198 | 7.56 |  | 0.0216 |  |  | CNC(=O)c1cccc(COc2nsc(NC(=O)NCCCCN3CCCC3)c2C(N)=O)c1 [Compound T049, 3-((3-(methylcarbamoyl)benzyl)oxy)-5-(3-(4-(pyrrolidin-1-yl)butyl)ureido)isothiazole-4-carboxamide]
7 |  | 0.0177 | 0.157 |  | 0.0343 |  | 0.0388 | NC(=O)c1c(OCc2ccc3ccoc3c2)nsc1NC(=O)NCCCCN1CCCC1 [Compound T054, 3-(benzofuran-6-ylmethoxy)-5-(3-(4-(pyrrolidin-1-yl)butyl)ureido)isothiazole-4-carboxamide]
8 |  | 0.0017 | 4.59 | 0.0612 | 0.00495 | > 60 | 0.0106 | NC(=O)c1c(OCc2cc(F)cc(C(=O)NC3CC3)c2)nsc1NC(=O)NCCCCN1CCCC1 [Compound T085, 3-[[3-(cyclopropylcarbamoyl)-5-fluoro-phenyl]methoxy]-5-(4-pyrrolidin-1-ylbutylcarbamoylamino)isothiazole-4-carboxamide]
9 | 133 (≈ 278 µM) | 0.0265 |  | 0.0462 |  |  |  | NC(=O)c1c(OCc2ccc3c(c2F)OCC3)nsc1NC(=O)NCCCCN1CCCC1 [Compound T074, 3-((7-fluoro-2,3-dihydrobenzofuran-6-yl)methoxy)-5-(3-(4-(pyrrolidin-1-yl)butyl)ureido)isothiazole-4-carboxamide]
10 | 1170 (≈ 2450 µM) | 0.0474 |  |  |  | 35 |  | COc1cc(COc2nsc(NC(=O)NCCCCN3CCCC3)c2C(N)=O)cc(OC)c1 [Compound T006, 3-((3,5-dimethoxybenzyl)oxy)-5-(3-(4-(pyrrolidin-1-yl)butyl)ureido)isothiazole-4-carboxamide]
11 | 1520 (≈ 3260 µM) | 0.0348 |  | 0.0232 |  | 21.8 |  | COc1cccc(COc2nsc(NC(=O)NCCCCN3CCCC3)c2C(N)=O)c1F [Compound T030, 3-((2-fluoro-3-methoxybenzyl)oxy)-5-(3-(4-(pyrrolidin-1-yl)butyl)ureido)isothiazole-4-carboxamide]
12 |  | 0.0127 | 0.164 | 0.0749 | 0.0256 | 18.1 | 0.0223 | NC(=O)c1c(OCc2ccc3c(c2)OCC3)nsc1NC(=O)NCCC1CCN(C2CC2)CC1 [Compound T083, 5-[2-(1-cyclopropyl-4-piperidyl)ethylcarbamoylamino]-3-(2,3-dihydrobenzofuran-6-ylmethoxy)isothiazole-4-carboxamide]
13 |  | 0.024 | 0.203 | 0.0757 | 0.0278 | 15.5 | 0.0485 | NC(=O)c1c(OCc2cc3c(cc2F)CCO3)nsc1NC(=O)NCCN1CCCCC1 [Compound T082, 3-[(5-fluoro-2,3-dihydrobenzofuran-6-yl)methoxy]-5-[2-(1-piperidyl)ethylcarbamoylamino]isothiazole-4-carboxamide]
14 |  | 0.023 |  | 0.0391 | 0.044 | 24.3 | 0.0488 | CN1CCC(CCNC(=O)Nc2snc(OCc3ccc4c(c3F)OCC4)c2C(N)=O)CC1 [Compound T075, 3-((7-fluoro-2,3-dihydrobenzofuran-6-yl)methoxy)-5-(3-(2-(1-methylpiperidin-4-yl)ethyl)ureido)isothiazole-4-carboxamide]
15 |  | 0.00677 | 0.135 | 0.0235 | 0.0135 | 15.1 | 0.0099 | CN1CCC(CCNC(=O)Nc2snc(OCc3cc(F)c4c(c3)OCC4)c2C(N)=O)CC1 [Compound T089, 3-((4-fluoro-2,3-dihydrobenzofuran-6-yl)methoxy)-5-(3-(2-(1-methylpiperidin-4-yl)ethyl)ureido)isothiazole-4-carboxamide]
16 | 1640 (≈ 3040 µM) | 0.003 | 0.241 | 0.0362 |  |  |  | CCNC(=O)c1ccc(F)c(COc2nsc(NC(=O)NCCC3CCN(CCF)CC3)c2C(N)=O)c1 [Compound T127, 3-[[5-(ethylcarbamoyl)-2-fluoro-phenyl]methoxy]-5-[2-[1-(2-fluoroethyl)-4-piperidyl]ethylcarbamoylamino]isothiazole-4-carboxamide]
17 | 977 (≈ 2010 µM) | 0.00886 |  |  | 0.00943 | > 60 | 0.0301 | NC(=O)c1c(OCc2cccc(C(=O)NC3CC3)c2)nsc1NC(=O)NCCCN1CCCC1 [Compound T067, 3-((3-(cyclopropylcarbamoyl)benzyl)oxy)-5-(3-(3-(pyrrolidin-1-yl)propyl)ureido)isothiazole-4-carboxamide]
18 | 757 (≈ 1410 µM) | 0.0005 |  |  |  | 21.5 |  | NC(=O)c1c(OCc2cc(C(=O)NC3CC3)cc(F)c2F)nsc1NC(=O)NCCCCN1CCCC1 [Compound T133, 3-[[5-(cyclopropylcarbamoyl)-2,3-difluoro-phenyl]methoxy]-5-(4-pyrrolidin-1-ylbutylcarbamoylamino)isothiazole-4-carboxamide]
19 |  | 0.0141 | 0.221 |  | 0.0301 | 15.8 | 0.0371 | NC(=O)c1c(OCc2ccc3c(c2)OCC3)nsc1NC(=O)NCCC1CCN(CCF)CC1 [Compound T084, 3-(2,3-dihydrobenzofuran-6-ylmethoxy)-5-[2-[1-(2-fluoroethyl)-4-piperidyl]ethylcarbamoylamino]isothiazole-4-carboxamide]
20 |  | 0.016 |  | 0.0632 | 0.0219 | 19.6 | 0.0239 | NC(=O)c1c(OCc2cc3c(cc2F)CCO3)nsc1NC(=O)NCCN1CC[C@@H](F)C1 [Compound T081, 3-[(5-fluoro-2,3-dihydrobenzofuran-6-yl)methoxy]-5-[2-[(3R)-3-fluoropyrrolidin-1-yl]ethylcarbamoylamino]isothiazole-4-carboxamide]
21 |  |  | 0.088 | 0.0582 | 0.0135 | 8.05 | 0.0261 | NC(=O)c1c(OCc2cc3c(cc2F)CCO3)nsc1NC(=O)NCCCN1CC[C@@H](F)C1 [Compound T080, 3-[(5-fluoro-2,3-dihydrobenzofuran-6-yl)methoxy]-5-[3-[(3R)-3-fluoropyrrolidin-1-yl]propylcarbamoylamino]isothiazole-4-carboxamide]
